Literature values, collected in patent US20210322306A1, “ORAL DISSOLVABLE FILM WITH HIGH LOAD OF POLYMERIC BINDER” (CURE Pharmaceutical Holding Corp., priority 2020, published 2021).

Assays:
[1] = neat binder
[2] = neat binder; remark: listed apart in the source

OC[C@H]1O[C@@H](O[C@H]2[C@H](O)[C@@H](O)C(O)O[C@@H]2CO)[C@H](O)[C@@H](O)[C@H]1O (some centres unmarked) [Lactose]
Polymeric Binder: Glass Transition Temperature (Tg) (determined by differential scanning calorimetry (DSC)) [1]: 102 °C
Polymeric Binder: Glass Transition Temperature (Tg) (determined by thermomechanical analysis (TMA)) [2]: 95 °C
